Measurements from EPA's CvTdb concentration-time database.

Assays:
[1] = test system: Rat; test: concentration in brain after dosing; conditions: dosed: Fluorotelomer alcohol 8+2, oral
[2] = test system: Rat; test: concentration in liver after dosing; conditions: dosed: Fluorotelomer alcohol 8+2, oral
[3] = test system: Rat; test: concentration in plasma after dosing
[4] = test system: Rat; test: concentration in brain after dosing; conditions: 3 h; dosed: Fluorotelomer alcohol 8+2; 24 mg/kg; oral; Male; Harlan Sprague Dawley
[5] = test system: Rat; test: concentration in liver after dosing; conditions: 6 h; dosed: Fluorotelomer alcohol 8+2; 80 mg/kg; oral; Female; Harlan Sprague Dawley
[6] = test system: Rat; test: concentration in kidney after dosing; conditions: dosed: Fluorotelomer alcohol 8+2, oral
[7] = test system: Rat; test: concentration in plasma after dosing; conditions: dosed: Fluorotelomer alcohol 8+2, 12 mg/kg, oral, Male, Harlan Sprague Dawley
[8] = test system: Rat; test: concentration in plasma after dosing; conditions: 3 h; dosed: Primidone; 30 mg/kg; oral; Female; F344

OCCC(F)(F)C(F)(F)C(F)(F)C(F)(F)C(F)(F)C(F)(F)C(F)(F)C(F)(F)F [Fluorotelomer alcohol 8+2]
Conditions	concentration in brain, [1] [ng/g]	concentration in kidney, [6] [ng/g]	concentration in liver, [2] [ng/g]
0.5 h, 24 mg/kg, Male, Harlan Sprague Dawley	4540	3380	17700
0.5 h, 24 mg/kg, Male, Harlan Sprague Dawley - this seems too small	978	1060	2190
0.5 h, 80 mg/kg, Female, Harlan Sprague Dawley	5440	2910	11600
1 h, 24 mg/kg, Male, Harlan Sprague Dawley	2450	1560	3900
1 h, 80 mg/kg, Female, Harlan Sprague Dawley	9090	6420	12500
3 h, 24 mg/kg, Male, Harlan Sprague Dawley	2300	1070	2230
3 h, 80 mg/kg, Female, Harlan Sprague Dawley	8400	3900	9320
6 h, 24 mg/kg, Male, Harlan Sprague Dawley	663	460	2050
6 h, 80 mg/kg, Female, Harlan Sprague Dawley	2060	1450	3970
12 h, 24 mg/kg, Male, Harlan Sprague Dawley	95.5	185	604
12 h, 80 mg/kg, Female, Harlan Sprague Dawley	679	373	1610

concentration in plasma [µg/mL], [3]
Conditions	0.25 h	0.5 h	0.75 h	1 h	3 h	5 min	6 h	9 h	12 h	24 h
dosed: Fluorotelomer alcohol 8+2, 12 mg/kg, iv, Male, F344	1.59	1.26	0.422	0.625	0.118	3.55	0.0487	0.0238	0.00559	0.00463
dosed: Fluorotelomer alcohol 8+2, 12 mg/kg, oral, Male, Harlan Sprague Dawley	0.0822	0.215	0.348	0.264	0.0844	0.00261	0.0371	0.0116	0.00401	0.00118
dosed: Fluorotelomer alcohol 8+2, 24 mg/kg, oral, Male, Harlan Sprague Dawley	0.11	–	–	–	–	0.00633	–	0.0402	–	0.00262
dosed: Fluorotelomer alcohol 8+2, 40 mg/kg, iv, Female, Harlan Sprague-Dawley	–	8.47	2.35	2.72	–	–	–	0.0766	0.0346	0.0232
dosed: Fluorotelomer alcohol 8+2, 40 mg/kg, iv, Male, F344	13	5.07	–	–	0.378	–	0.254	0.047	–	–

Conditions	concentration in brain [ng/g]	concentration in liver [ng/g]
[4]	1490	–
[5]	–	2430

[7]
Conditions	concentration in plasma [µg/mL]
1 h	0.255
24 h	0.0034

CCC1(c2ccccc2)C(=O)NC(=O)NC1=O [Phenobarbital]
concentration in plasma [µg/mL], [3], dosed: Primidone, oral
Conditions	0.25 h	0.5 h	1.5 h	3 h	6 h	9 h	12 h	18 h	22 h	30 h
30 mg/kg, Female, F344	–	–	0.41	0.54	1.06	0.9	1.11	0.86	0.93	–
30 mg/kg, Male, F344	0.3	0.33	2.03	2.98	3.51	2.72	2.43	1.66	1.06	–
80 mg/kg, Female, F344	–	–	0.63	1.1	1.96	2.19	1.98	1.96	1.5	–
80 mg/kg, Female, Harlan Sprague-Dawley	0.34	0.93	–	–	–	–	5.66	–	–	–
80 mg/kg, Male, F344	–	–	3.33	3.62	6.53	7.43	–	4.02	2.87	–
130 mg/kg, Female, F344	–	0.96	0.87	4.5	9.67	3.05	9.03	–	2.04	1.92
130 mg/kg, Female, Harlan Sprague-Dawley	–	–	4.09	–	–	–	–	–	–	–
130 mg/kg, Male, F344	–	–	4.15	–	7.7	9.61	–	–	4.12	2.26
130 mg/kg, Male, Harlan Sprague Dawley	–	–	–	0.84	–	–	2.49	–	–	–

Conditions	concentration in plasma [µg/mL]
[8]	0.64
